According to patent US20240109903A1, “SUBSTITUTED HETEROCYCLES FOR TREATING CANCER” (Northwestern University, priority 2022, published 2024):

Tests used:
SF-539 = assay: NCI 60 five-dose screen SF-539; format: cell-based; settings: Homo sapiens, five-dose
SF-268 = assay: NCI 60 five-dose screen SF-268; format: cell-based; settings: Homo sapiens, five-dose
A549/ATCC = assay: NCI 60 five-dose screen A549/ATCC; format: cell-based; settings: Homo sapiens, five-dose
MDA-MB-231/ATCC = assay: NCI 60 five-dose screen MDA-MB-231/ATCC; format: cell-based; settings: Homo sapiens, five-dose
RXF 393 = assay: NCI 60 five-dose screen RXF 393; format: cell-based; settings: Homo sapiens, five-dose
MOLT-4 = assay: NCI 60 five-dose screen MOLT-4; format: cell-based; settings: Homo sapiens, five-dose
SN12C = assay: NCI 60 five-dose screen SN12C; format: cell-based; settings: Homo sapiens, five-dose
MALME-3M = assay: NCI 60 five-dose screen MALME-3M; format: cell-based; settings: Homo sapiens, MALME-3M, five-dose
NCI-H322M = assay: NCI 60 five-dose screen NCI-H322M; format: cell-based; settings: Homo sapiens, five-dose
SF-295 = assay: NCI 60 five-dose screen SF-295; format: cell-based; settings: Homo sapiens, five-dose
786-0 = assay: NCI 60 five-dose screen 786-0; format: cell-based; settings: Homo sapiens, five-dose
HCC-2998 = assay: NCI 60 five-dose screen HCC-2998; format: cell-based; settings: Homo sapiens, five-dose
IGROV1 = assay: NCI 60 five-dose screen IGROV1; format: cell-based; settings: Homo sapiens, IGROV-1, five-dose
HOP-92 = assay: NCI 60 five-dose screen HOP-92; format: cell-based; settings: Homo sapiens, five-dose
HL-60(TB) = assay: NCI 60 five-dose screen HL-60(TB); format: cell-based; settings: Homo sapiens, five-dose
OVCAR-8 = assay: NCI 60 five-dose screen OVCAR-8; format: cell-based; settings: Homo sapiens, five-dose
K-562 = assay: NCI 60 five-dose screen K-562; format: cell-based; settings: Homo sapiens, K562, five-dose
MCF7 = assay: NCI 60 five-dose screen MCF7; format: cell-based; settings: Homo sapiens, five-dose
HT29 = assay: NCI 60 five-dose screen HT29; format: cell-based; settings: Homo sapiens, HT-29, five-dose
TK-10 = assay: NCI 60 five-dose screen TK-10; format: cell-based; settings: Homo sapiens, five-dose
SK-MEL-2 = assay: NCI 60 five-dose screen SK-MEL-2; format: cell-based; settings: Homo sapiens, five-dose
SNB-19 = assay: NCI 60 five-dose screen SNB-19; format: cell-based; settings: Homo sapiens, five-dose
HCT-15 = assay: NCI 60 five-dose screen HCT-15; format: cell-based; settings: Homo sapiens, five-dose
KM12 = assay: NCI 60 five-dose screen KM12; format: cell-based; settings: Homo sapiens, five-dose
LOX IMVI = assay: NCI 60 five-dose screen LOX IMVI; format: cell-based; settings: Homo sapiens, five-dose
SR = assay: NCI 60 five-dose screen SR; format: cell-based, human; settings: Homo sapiens, five-dose
CAKI-1 = assay: NCI 60 five-dose screen CAKI-1; format: cell-based; settings: Homo sapiens, five-dose
COLO 205 = assay: NCI 60 five-dose screen COLO 205; format: cell-based; settings: Homo sapiens, five-dose
[1] = read-out: LC50 (the source's name) (converted)
[2] = read-out: LC50 (the source's name)

FC(F)(F)CN1CCN(CCn2c(C(F)(F)F)cc3c(Cl)ncnc32)CC1 [NUCC-0226683]
GI50 (SF-539): 12.6 µM | IC50 (SF-539): 22.9 µM | IC (TGI) (SF-539): 28.8 µM | CC50 (SF-539; [1]): 66.1 µM | GI50 (SF-268): 5.25 µM | IC50 (SF-268): 11.5 µM | IC (TGI) (SF-268): 21.4 µM | CC50 (SF-268; [1]): 70.8 µM | GI50 (A549/ATCC): 52.5 µM | IC50 (A549/ATCC): 89.1 µM | IC (TGI) (A549/ATCC): 100 µM | CC50 (A549/ATCC; [1]): ≥ 100 µM | GI50 (MDA-MB-231/ATCC): 1.78 µM | IC50 (MDA-MB-231/ATCC): 3.39 µM | IC (TGI) (MDA-MB-231/ATCC): 4.27 µM | CC50 (MDA-MB-231/ATCC; [1]): 11.5 µM | GI50 (RXF 393): 11 µM | IC50 (RXF 393): 30.9 µM | IC (TGI) (RXF 393): 28.2 µM | CC50 (RXF 393; [1]): 72.4 µM | GI50 (MOLT-4): 2.4 µM | IC50 (MOLT-4): 4.17 µM | IC (TGI) (MOLT-4): 9.12 µM | CC50 (MOLT-4; [2]): ≥ 100 µM | GI50 (SN12C): 7.76 µM | IC50 (SN12C): 13.8 µM | IC (TGI) (SN12C): 22.9 µM | CC50 (SN12C; [1]): 60.3 µM | GI50 (MALME-3M): 14.5 µM | IC50 (MALME-3M): 33.9 µM | IC (TGI) (MALME-3M): 32.4 µM | CC50 (MALME-3M; [1]): 70.8 µM | GI50 (NCI-H322M): 5.5 µM | IC50 (NCI-H322M): 15.8 µM | IC (TGI) (NCI-H322M): 19.1 µM | CC50 (NCI-H322M; [1]): 44.7 µM | GI50 (SF-295): 10.2 µM | IC50 (SF-295): 17.8 µM | IC (TGI) (SF-295): 25.7 µM | CC50 (SF-295; [1]): 64.6 µM | GI50 (786-0): 22.4 µM | IC50 (786-0): 37.2 µM | IC (TGI) (786-0): 60.3 µM | CC50 (786-0; [1]): ≥ 100 µM | GI50 (HCC-2998): 1.82 µM | IC50 (HCC-2998): 3.24 µM | IC (TGI) (HCC-2998): 3.31 µM | CC50 (HCC-2998; [1]): 5.89 µM | GI50 (IGROV1): 1.78 µM | IC50 (IGROV1): 3.16 µM | IC (TGI) (IGROV1): 3.55 µM | CC50 (IGROV1; [1]): 7.08 µM | GI50 (HOP-92): 12.9 µM | IC50 (HOP-92): 32.4 µM | IC (TGI) (HOP-92): 29.5 µM | CC50 (HOP-92; [1]): 66.1 µM | GI50 (HL-60(TB)): 2.75 µM | IC50 (HL-60(TB)): 5.75 µM | IC (TGI) (HL-60(TB)): 8.13 µM | CC50 (HL-60(TB); [1]): ≥ 100 µM | GI50 (OVCAR-8): 3.24 µM | IC50 (OVCAR-8): 4.47 µM | IC (TGI) (OVCAR-8): 11.7 µM | CC50 (OVCAR-8; [1]): 40.7 µM | GI50 (K-562): 2.82 µM | IC50 (K-562): 3.47 µM | IC (TGI) (K-562): 100 µM | CC50 (K-562; [2]): ≥ 100 µM | GI50 (MCF7): 10 µM | IC50 (MCF7): 15.8 µM | IC (TGI) (MCF7): 42.7 µM | CC50 (MCF7; [1]): ≥ 100 µM | GI50 (HT29): 5.5 µM | IC50 (HT29): 7.41 µM | IC (TGI) (HT29): 36.3 µM | CC50 (HT29; [1]): ≥ 100 µM | GI50 (TK-10): 35.5 µM | IC50 (TK-10): 100 µM | IC (TGI) (TK-10): 100 µM | CC50 (TK-10; [1]): ≥ 100 µM | GI50 (SK-MEL-2): 15.8 µM | IC50 (SK-MEL-2): 31.6 µM | IC (TGI) (SK-MEL-2): 30.9 µM | CC50 (SK-MEL-2; [1]): 60.3 µM | GI50 (SNB-19): 13.2 µM | IC50 (SNB-19): 24 µM | IC (TGI) (SNB-19): 26.9 µM | CC50 (SNB-19; [1]): 53.7 µM | GI50 (HCT-15): 2.57 µM | IC50 (HCT-15): 3.55 µM | IC (TGI) (HCT-15): 7.41 µM | CC50 (HCT-15; [1]): 50.1 µM | GI50 (KM12): 17.8 µM | IC50 (KM12): 30.2 µM | IC (TGI) (KM12): 39.8 µM | CC50 (KM12; [1]): 89.1 µM | GI50 (LOX IMVI): 1.66 µM | IC50 (LOX IMVI): 2.95 µM | IC (TGI) (LOX IMVI): 3.09 µM | CC50 (LOX IMVI; [1]): 5.75 µM | GI50 (SR): 2.14 µM | IC50 (SR): 3.55 µM | CC50 (SR; [2]): ≥ 100 µM | GI50 (CAKI-1): 13.5 µM | IC50 (CAKI-1): 25.7 µM | IC (TGI) (CAKI-1): 30.9 µM | CC50 (CAKI-1; [1]): 69.2 µM | GI50 (COLO 205): 18.6 µM | IC50 (COLO 205): 33.9 µM | IC (TGI) (COLO 205): 45.7 µM | CC50 (COLO 205; [1]): ≥ 100 µM
